Laboratory results as given in ChEMBL document CHEMBL1909046, “DrugMatrix in vitro pharmacology data”.

Tests used:
[1] = target: T1, Alpha-2C adrenergic receptor (Homo sapiens, UniProt P18825); test: DRUGMATRIX: Adrenergic Alpha-2C radioligand binding (ligand: [3H] MK-912); assay type: cell membranes, Sf9, Membrane
T1 sequence (P18825 whole entry): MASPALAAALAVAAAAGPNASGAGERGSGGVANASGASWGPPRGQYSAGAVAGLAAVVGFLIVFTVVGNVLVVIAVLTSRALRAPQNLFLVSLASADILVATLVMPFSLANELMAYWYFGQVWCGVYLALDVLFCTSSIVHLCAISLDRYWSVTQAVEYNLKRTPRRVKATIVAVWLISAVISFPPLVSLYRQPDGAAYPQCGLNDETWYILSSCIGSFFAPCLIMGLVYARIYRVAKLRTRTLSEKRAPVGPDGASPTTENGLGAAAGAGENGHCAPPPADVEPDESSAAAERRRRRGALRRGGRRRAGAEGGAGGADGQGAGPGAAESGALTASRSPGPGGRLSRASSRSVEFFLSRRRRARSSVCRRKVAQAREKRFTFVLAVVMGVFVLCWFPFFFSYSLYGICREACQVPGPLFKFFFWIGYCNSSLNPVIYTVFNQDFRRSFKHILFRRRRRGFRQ

[2] = target: T2, Angiotensin-converting enzyme (Oryctolagus cuniculus, UniProt P12822); assay type: tissue-based, Lung;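 note: enzymatic inhibition of angiotensin-converting enzyme measured with FAPGG as the substrate; in other assays of this panel Not Active means under 50% inhibition at 10 µM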
T2 sequence (P12822 whole entry): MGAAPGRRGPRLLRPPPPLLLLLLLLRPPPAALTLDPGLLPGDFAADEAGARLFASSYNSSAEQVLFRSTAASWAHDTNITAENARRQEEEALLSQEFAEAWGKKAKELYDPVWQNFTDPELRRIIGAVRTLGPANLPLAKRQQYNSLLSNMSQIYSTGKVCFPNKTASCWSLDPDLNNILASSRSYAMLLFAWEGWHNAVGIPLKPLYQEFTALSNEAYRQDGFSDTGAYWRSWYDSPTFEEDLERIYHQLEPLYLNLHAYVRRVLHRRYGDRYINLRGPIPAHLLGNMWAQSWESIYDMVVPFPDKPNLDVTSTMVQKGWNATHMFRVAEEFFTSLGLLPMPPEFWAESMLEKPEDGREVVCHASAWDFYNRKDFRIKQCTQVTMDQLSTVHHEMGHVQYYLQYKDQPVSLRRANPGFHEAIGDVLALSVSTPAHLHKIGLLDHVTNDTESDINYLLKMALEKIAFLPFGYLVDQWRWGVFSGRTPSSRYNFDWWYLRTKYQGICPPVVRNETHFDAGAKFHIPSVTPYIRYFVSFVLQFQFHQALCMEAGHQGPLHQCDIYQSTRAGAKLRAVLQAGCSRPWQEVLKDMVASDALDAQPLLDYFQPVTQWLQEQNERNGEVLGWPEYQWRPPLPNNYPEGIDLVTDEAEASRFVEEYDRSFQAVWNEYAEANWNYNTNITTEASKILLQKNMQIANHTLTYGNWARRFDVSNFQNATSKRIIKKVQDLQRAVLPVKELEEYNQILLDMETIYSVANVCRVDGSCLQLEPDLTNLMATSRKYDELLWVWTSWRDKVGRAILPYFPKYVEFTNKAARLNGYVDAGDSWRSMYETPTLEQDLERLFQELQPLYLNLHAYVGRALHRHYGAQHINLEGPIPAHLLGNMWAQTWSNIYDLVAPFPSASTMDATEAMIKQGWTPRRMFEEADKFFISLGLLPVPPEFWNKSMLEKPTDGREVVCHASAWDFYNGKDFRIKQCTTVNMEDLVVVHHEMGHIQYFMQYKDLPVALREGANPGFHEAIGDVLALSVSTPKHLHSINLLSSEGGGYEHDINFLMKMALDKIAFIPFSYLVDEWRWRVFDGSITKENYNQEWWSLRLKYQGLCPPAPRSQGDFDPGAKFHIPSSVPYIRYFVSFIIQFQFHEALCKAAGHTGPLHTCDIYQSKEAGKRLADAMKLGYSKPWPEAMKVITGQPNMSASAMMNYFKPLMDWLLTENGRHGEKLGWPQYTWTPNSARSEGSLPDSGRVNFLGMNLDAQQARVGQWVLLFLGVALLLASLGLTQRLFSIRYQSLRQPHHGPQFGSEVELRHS

[3] = DRUGMATRIX: ATPase, Na+/K+ enzyme inhibition (substrate: ATP); assay type: tissue-based, Sus scrofa, Heart; details: Not Active = under 50% inhibition at 10 µM
Cytochrome P450 2A6 = target: T3, Cytochrome P450 2A6 (Homo sapiens, UniProt P11509); details: bti-tn-5b1-4; note: in other assays of this panel Not Active means under 50% inhibition at 10 µM
T3 sequence (P11509 whole entry): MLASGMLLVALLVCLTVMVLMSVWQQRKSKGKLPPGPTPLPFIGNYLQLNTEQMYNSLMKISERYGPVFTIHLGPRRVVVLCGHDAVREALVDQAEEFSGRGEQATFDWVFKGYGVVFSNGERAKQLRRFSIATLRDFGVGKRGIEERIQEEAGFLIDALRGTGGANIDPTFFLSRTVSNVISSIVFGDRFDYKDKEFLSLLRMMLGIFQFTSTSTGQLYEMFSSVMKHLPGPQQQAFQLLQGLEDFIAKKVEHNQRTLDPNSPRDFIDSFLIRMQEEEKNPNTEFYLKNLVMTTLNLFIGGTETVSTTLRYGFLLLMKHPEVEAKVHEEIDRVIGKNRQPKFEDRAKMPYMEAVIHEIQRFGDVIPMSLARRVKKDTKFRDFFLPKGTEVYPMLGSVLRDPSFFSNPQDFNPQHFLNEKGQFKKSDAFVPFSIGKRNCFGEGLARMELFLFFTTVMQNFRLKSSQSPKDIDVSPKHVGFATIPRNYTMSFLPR

[4] = DRUGMATRIX: Phosphodiesterase PDE3 enzyme inhibition (substrate: [3H]cAMP + cAMP); assay type: tissue-based, Homo sapiens; details: platelet, Not Active = under 50% inhibition at 10 µM
[5] = DRUGMATRIX: Glutamate, NMDA, Phencyclidine radioligand binding (ligand: [3H] TCP); assay type: cell membranes, Rattus norvegicus, Wistar, Cerebral cortex, Membrane; details: Not Active = under 50% inhibition at 10 µM
[6] = target: Receptor tyrosine-protein kinase erbB-2 (Homo sapiens, UniProt P04626); test: biochemical; assay type: cell-based, Insect cells; details: insect cells;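 note: inhibition of HER2 kinase enzyme activity, measured with Poly(Glu:Tyr) as the phosphorylation substrate; in other assays of this panel Not Active means under 50% inhibition at 10 µM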
Receptor tyrosine-protein kinase erbB-2, sequence (P04626 whole entry): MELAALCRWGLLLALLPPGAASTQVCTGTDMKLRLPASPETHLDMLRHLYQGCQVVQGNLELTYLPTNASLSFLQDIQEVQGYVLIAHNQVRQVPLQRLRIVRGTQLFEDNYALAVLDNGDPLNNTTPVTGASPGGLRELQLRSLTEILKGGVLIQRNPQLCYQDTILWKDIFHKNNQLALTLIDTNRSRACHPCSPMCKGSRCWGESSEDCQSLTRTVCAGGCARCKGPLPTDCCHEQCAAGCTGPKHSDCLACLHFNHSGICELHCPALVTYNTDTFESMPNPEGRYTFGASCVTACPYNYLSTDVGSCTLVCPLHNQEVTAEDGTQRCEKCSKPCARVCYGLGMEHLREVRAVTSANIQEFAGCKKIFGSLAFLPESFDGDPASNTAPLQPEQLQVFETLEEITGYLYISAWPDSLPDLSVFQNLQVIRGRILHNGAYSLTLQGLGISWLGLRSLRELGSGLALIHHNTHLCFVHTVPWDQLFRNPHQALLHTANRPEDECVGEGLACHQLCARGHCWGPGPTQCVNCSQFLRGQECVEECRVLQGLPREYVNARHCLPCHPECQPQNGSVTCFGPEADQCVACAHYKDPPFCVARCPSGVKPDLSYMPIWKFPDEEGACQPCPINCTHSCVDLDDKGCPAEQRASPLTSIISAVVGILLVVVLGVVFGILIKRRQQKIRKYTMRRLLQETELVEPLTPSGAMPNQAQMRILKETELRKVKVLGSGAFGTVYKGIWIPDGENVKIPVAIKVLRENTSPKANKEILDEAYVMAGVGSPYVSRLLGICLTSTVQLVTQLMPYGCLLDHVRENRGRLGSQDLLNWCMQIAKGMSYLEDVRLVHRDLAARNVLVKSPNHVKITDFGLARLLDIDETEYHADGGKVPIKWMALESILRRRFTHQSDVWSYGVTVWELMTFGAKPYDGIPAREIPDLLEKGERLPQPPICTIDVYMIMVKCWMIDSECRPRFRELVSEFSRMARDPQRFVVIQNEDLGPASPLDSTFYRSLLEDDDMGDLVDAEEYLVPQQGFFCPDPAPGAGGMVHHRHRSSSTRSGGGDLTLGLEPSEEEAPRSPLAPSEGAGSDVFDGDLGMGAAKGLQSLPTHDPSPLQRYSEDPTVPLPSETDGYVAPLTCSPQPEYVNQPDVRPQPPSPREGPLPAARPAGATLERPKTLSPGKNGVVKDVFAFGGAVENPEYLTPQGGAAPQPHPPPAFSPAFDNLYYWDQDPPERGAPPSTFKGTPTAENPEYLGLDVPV

Row | SMILES | IC50 ([1]; sf9) | IC50 [2] | IC50 [3] | Ki [3] | IC50 (Cytochrome P450 2A6) | Ki (Cytochrome P450 2A6) | IC50 [4] | Ki [4] | IC50 [5] | Ki [5] | IC50 [6] | IC50 ([1]; read-out: IC50) | Ki ([1]; read-out: Ki) | IC50 ([4]; read-out: IC50)
1 | CN(Cc1cnc2nc(N)nc(N)c2n1)c1ccc(C(=O)N[C@@H](CCC(=O)O)C(=O)O)cc1 [METHOTREXATE] | Not Active | Not Active | Not Active | Not Active | Not Active | Not Active | Not Active | Not Active | Not Active | Not Active | Not Active | – | – | –
2 | O=P1(N(CCCl)CCCl)NCCCO1 (stereo not drawn) [CYCLOPHOSPHAMIDE ANHYDROUS] | Not Active | Not Active | Not Active | Not Active | Not Active | Not Active | Not Active | Not Active | Not Active | Not Active | Not Active | – | – | –
3 | C[C@]12CCC(=O)C=C1CC[C@@H]1[C@@H]2[C@@H](O)C[C@@]2(C)[C@H]1CC[C@]2(O)C(=O)CO [HYDROCORTISONE] | Not Active | Not Active | Not Active | Not Active | Not Active | Not Active | Not Active | Not Active | Not Active | Not Active | Not Active | – | – | –
4 | Cc1cccc(Nc2ccccc2C(=O)O)c1C [MEFENAMIC ACID] | Not Active | Not Active | Not Active | Not Active | Not Active | Not Active | Not Active | Not Active | Not Active | Not Active | Not Active | – | – | –
5 | CCn1cc(C(=O)O)c(=O)c2cc(F)c(N3CCNCC3)nc21 [ENOXACIN] | Not Active | Not Active | Not Active | Not Active | Not Active | Not Active | Not Active | Not Active | Not Active | Not Active | Not Active | – | – | –
6 | Cc1c(N(C)CS(=O)(=O)[O-])c(=O)n(-c2ccccc2)n1C.[Na+] [DIPYRONE SODIUM] | Not Active | Not Active | Not Active | Not Active | Not Active | Not Active | Not Active | Not Active | Not Active | Not Active | Not Active | – | – | –
7 | C#C[C@]1(O)CC[C@H]2[C@@H]3CCC4=Cc5oncc5C[C@]4(C)[C@H]3CC[C@@]21C [DANAZOL] | – | Not Active | Not Active | Not Active | Not Active | Not Active | – | – | Not Active | Not Active | Not Active | 23.8 µM | 3.45 µM | 2.54 µM
8 | CC(=O)O[C@]1(C(C)=O)CC[C@H]2[C@@H]3C=C(C)C4=CC(=O)CC[C@]4(C)[C@H]3CC[C@@]21C [MEGESTROL ACETATE] | Not Active | Not Active | Not Active | Not Active | Not Active | Not Active | Not Active | Not Active | Not Active | Not Active | Not Active | – | – | –
